Data from ChEMBL document CHEMBL5214890 (Eur J Med Chem, 2021).
Activity calls are given as the source filed them. No cut-off for these calls is given here.

Key:
Glucagon receptor = Glucagon receptor (Homo sapiens, UniProt P47871); test: Agonist activity at human GCGR expressed in HEK293 cells incubated for 30 mins and assessed as increase in cAMP accumulation measured by HTRF assay; type: functional, cell-based
Mus musculus [1] = test: Antidiabetic activity in DIO mouse assessed as reduction in plasma insulin level at 10 nmol/kg, ip pretreated with compound and followed by glucose challenge and measured by oral glucose tolerance test; type: functional, organism-based
Mus musculus [2] = test: Antidiabetic activity in 2 hrs fasted male C57BL/6J mouse at 10 to 30 nmol/kg, ip administered at 0 mins in presence of somatostatin at 10 mg/kg, sc administered at -30 mins and measured by oral glucose tolerance test; type: functional, organism-based; settings: dose 10-30 nmol/kg
Mus musculus [3] = test: Antidiabetic activity in male DIO mouse assessed as reduction in acute food intake at 10 nmol/kg, sc measured at 24 hrs post administration; type: functional, organism-based
Rattus norvegicus = test: Antidiabetic activity in overnight fasted male Sprague-Dawley rat assessed as reduction in food intake at 300 nmol/kg, ip; type: functional; set-up: scale not given: the % may be the effect or the level left
[4] = Half-life in male Sprague-Dawley rat at 25 nmol/kg, sc administered as single dose and measured after 24 hrs by LC-MS/MS analysis; type: ADME, organism-based; settings: in vivo
[5] = MRT in male Sprague-Dawley rat at 25 nmol/kg, sc administered as single dose and measured after 24 hrs by LC-MS/MS analysis; type: ADME, organism-based; settings: in vivo
[6] = Toxicity in male DIO mouse assessed as reduction in body weight at 100 nmol/kg, sc administered twice daily for 7 days; type: organism-based; set-up: scale not given: the % may be the effect or the level left; settings: in vivo, 168 h, time 7 day
Mus musculus [7] = test: Antidiabetic activity in male DIO mouse assessed as decrease in cumulative food intake at 100 nmol/kg, sc administered twice daily for 7 days; type: functional, organism-based; settings: time 7.0 day
[8] = Toxicity in male DIO mouse assessed as change in liver AST level at 100 nmol/kg, sc administered twice daily for 7 days; type: organism-based; settings: in vivo, 168 h, time 7 day
[9] = Toxicity in male DIO mouse assessed as change in serum lipase at 100 nmol/kg, sc administered twice daily for 7 days; type: organism-based; settings: in vivo, 168 h, time 7 day
[10] = Toxicity in male db/db mouse assessed as change in liver AST level at 100 nmol/kg, sc administered twice daily for 7 days; type: organism-based; settings: in vivo, 168 h, time 7 day
[11] = Toxicity in male db/db mouse assessed as change in liver ALT level at 100 nmol/kg, sc administered twice daily for 7 days; type: organism-based; settings: in vivo, 168 h, time 7 day
Mus musculus [12] = test: Antidiabetic activity in male db/db mouse assessed as significant reduction in body weight gain at 30 nmol/kg, sc administered twice daily for 35 days; type: functional, organism-based; settings: time 35.0 day
Mus musculus [13] = test: Antidiabetic activity in male db/db mouse assessed as reduction in blood glucose level at 30 nmol/kg, sc administered twice daily for 35 days; type: functional, organism-based; settings: time 35.0 day
Mus musculus [14] = test: Antidiabetic activity in male db/db mouse assessed as decrease in HbA1c level at 30 nmol/kg, sc administered twice daily for 35 days; type: functional, organism-based; settings: time 35.0 day
Mus musculus [15] = test: Antidiabetic activity in male db/db mouse assessed as increase in islet area at 30 nmol/kg, sc administered twice daily for 35 days; type: functional, organism-based; settings: time 35.0 day
Mus musculus [16] = test: Antidiabetic activity in male db/db mouse assessed as increase in insulin IOD value at 30 nmol/kg, sc administered twice daily for 35 days; type: functional, organism-based; settings: time 35.0 day
[17] = Toxicity in male db/db mouse assessed as change in liver AST level at 30 nmol/kg, sc administered twice daily for 35 days; type: organism-based; settings: in vivo, 840 h, time 35 day
[18] = Toxicity in male db/db mouse assessed as change in liver ALT level at 30 nmol/kg, sc administered twice daily for 35 days; type: organism-based; settings: in vivo, 840 h, time 35 day
[19] = Toxicity in male db/db mouse assessed as change in Cre level at 30 nmol/kg, sc administered twice daily for 35 days; type: organism-based; settings: in vivo, 840 h, time 35 day
Mus musculus [20] = test: Antidiabetic activity in male […] assessed as reduction in food intake at 30 nmol/kg, sc administered twice daily for 3 weeks; type: functional, organism-based
Mus musculus [21] = test: Antidiabetic activity in male […] assessed as reduction in fat mas at 30 nmol/kg, sc administered twice daily for 3 weeks; type: functional, organism-based
Mus musculus [22] = test: Antidiabetic activity in male […] assessed as increase in plasma insulin level at 30 nmol/kg, sc administered twice daily for 3 weeks; type: functional, organism-based
Mus musculus [23] = test: Antidiabetic activity in male […] assessed as decrease in serum total cholesterol level at 30 nmol/kg, sc administered twice daily for 3 weeks; type: functional, organism-based
Mus musculus [24] = test: Antidiabetic activity in male […] assessed as increase in serum HDL/LDL ratio at 30 nmol/kg, sc administered twice daily for 3 weeks; type: functional, organism-based

Sequence of Glucagon receptor (P47871 whole entry): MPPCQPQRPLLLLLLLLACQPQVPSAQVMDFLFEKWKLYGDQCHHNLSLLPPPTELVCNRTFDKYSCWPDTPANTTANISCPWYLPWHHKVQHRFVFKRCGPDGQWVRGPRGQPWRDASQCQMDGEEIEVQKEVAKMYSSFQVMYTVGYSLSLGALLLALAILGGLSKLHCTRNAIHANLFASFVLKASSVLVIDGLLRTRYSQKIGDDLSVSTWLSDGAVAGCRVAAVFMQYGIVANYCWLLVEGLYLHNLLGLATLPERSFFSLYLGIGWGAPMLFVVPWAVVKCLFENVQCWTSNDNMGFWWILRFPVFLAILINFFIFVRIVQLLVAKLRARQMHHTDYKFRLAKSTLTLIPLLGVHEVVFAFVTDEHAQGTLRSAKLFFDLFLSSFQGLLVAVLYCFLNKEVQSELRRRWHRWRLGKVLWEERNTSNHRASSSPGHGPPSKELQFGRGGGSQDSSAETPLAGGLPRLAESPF

CCCCCCCCCCCCCCCC(=O)N[C@@H](CCC(=O)NCCCC[C@H](NC(=O)[C@H](Cc1ccc(O)cc1)NC(=O)[C@H](CCCCN)NC(=O)[C@H](CO)NC(=O)[C@@H](NC(=O)[C@H](CC(=O)O)NC(=O)[C@H](CC(N)=O)NC(=O)[C@@H](NC(=O)[C@H](Cc1ccc(O)cc1)NC(=O)[C@@H](NC(=O)CNC(=O)[C@H](CCC(N)=O)NC(=O)[C@@H](CO)NC(=O)[C@@H](N)Cc1c[nH]cn1)[C@@H](C)O)[C@@H](C)O)C(C)C)C(=O)N[C@@H](CC(=O)O)C(=O)N[C@@H](CO)C(=O)N[C@@H](CCCNC(=N)N)C(=O)N[C@@H](CCCNC(=N)N)C(=O)N[C@@H](C)C(=O)N[C@@H](CCC(N)=O)C(=O)N[C@@H](CC(=O)O)C(=O)N[C@@H](Cc1ccccc1)C(=O)N[C@H](C(=O)N[C@@H](CCC(=O)O)C(=O)N[C@@H](Cc1c[nH]c2ccccc12)C(=O)N[C@@H](CC(C)C)C(=O)N[C@@H](CCCCN)C(=O)N[C@@H](CC(N)=O)C(=O)NCC(=O)NCC(=O)N1CCC[C@H]1C(=O)N[C@@H](CO)C(=O)N[C@@H](CO)C(=O)NCC(=O)N[C@@H](C)C(=O)N1CCC[C@H]1C(=O)N1CCC[C@H]1C(=O)N1CCC[C@H]1C(=O)N[C@@H](CO)C(N)=O)[C@@H](C)CC)C(=O)O
EC50 (Glucagon receptor): 0.098 nM | Activity (Mus musculus [1]): Active | Activity (Mus musculus [2]): Active | Activity (Mus musculus [3]): Active | Activity (Rattus norvegicus): 33% | half-life [4]: 4 h | MRT [5]: 7.7 h | Activity [6]: 16.3% | Activity (Mus musculus [7]): Active | Activity [8]: Non-Toxic | Activity [9]: Non-Toxic | Activity [10]: Non-Toxic | Activity [11]: Non-Toxic | Activity (Mus musculus [12]): Active | Activity (Mus musculus [13]): Active | Activity (Mus musculus [14]): Active | Activity (Mus musculus [15]): Active | Activity (Mus musculus [16]): Active | Activity [17]: Non-Toxic | Activity [18]: Non-Toxic | Activity [19]: Non-Toxic | Activity (Mus musculus [20]): Active | Activity (Mus musculus [21]): Active | Activity (Mus musculus [22]): Active | Activity (Mus musculus [23]): Active | Activity (Mus musculus [24]): Active
